Data reported in ChEMBL document CHEMBL4800723, “Data for DCP probe BI-1942” (2021).

Experiments:
[1] = biological target: Caspase-10 (Homo sapiens) (UniProt Q92851); assay: CASPASE-10(H) Eurofins SafetyScreen44 (BI); details: Compound concentration 10.0 uM
[2] = biological target: Alpha-2A adrenergic receptor (Homo sapiens) (UniProt P08913); details: Compound concentration 10.0 uM
[3] = biological target: Prostaglandin G/H synthase 1 (Homo sapiens) (UniProt P23219); assay: COX-1 Eurofins SafetyScreen44 (BI); details: Compound concentration 10.0 uM
[4] = biological target: Androgen receptor (Homo sapiens) (UniProt P10275); assay: ANDROGEN/H Eurofins SafetyScreen44 (BI); details: Compound concentration 10.0 uM
[5] = biological target: Alpha-1A adrenergic receptor (Homo sapiens) (UniProt P35348); details: Compound concentration 10.0 uM
Sequence of Alpha-1A adrenergic receptor (Homo sapiens) (P35348 whole entry): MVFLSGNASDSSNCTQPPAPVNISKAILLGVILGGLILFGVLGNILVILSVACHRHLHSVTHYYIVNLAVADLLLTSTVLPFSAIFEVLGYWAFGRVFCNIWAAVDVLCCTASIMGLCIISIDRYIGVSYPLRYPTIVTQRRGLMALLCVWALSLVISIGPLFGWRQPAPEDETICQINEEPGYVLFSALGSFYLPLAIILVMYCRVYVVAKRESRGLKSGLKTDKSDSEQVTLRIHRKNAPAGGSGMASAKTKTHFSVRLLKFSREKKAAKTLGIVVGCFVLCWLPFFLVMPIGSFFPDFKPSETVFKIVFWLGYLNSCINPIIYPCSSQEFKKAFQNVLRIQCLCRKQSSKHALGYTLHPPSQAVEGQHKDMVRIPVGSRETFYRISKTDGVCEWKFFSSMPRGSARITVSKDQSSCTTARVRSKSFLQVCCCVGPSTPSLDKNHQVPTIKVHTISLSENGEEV

[6] = biological target: Alpha-1B adrenergic receptor (Homo sapiens) (UniProt P35368); details: Compound concentration 10.0 uM
[7] = biological target: 5-hydroxytryptamine receptor 1D (Homo sapiens, UniProt P28221); details: Compound concentration 10.0 uM
Sequence of 5-hydroxytryptamine receptor 1D (P28221 whole entry): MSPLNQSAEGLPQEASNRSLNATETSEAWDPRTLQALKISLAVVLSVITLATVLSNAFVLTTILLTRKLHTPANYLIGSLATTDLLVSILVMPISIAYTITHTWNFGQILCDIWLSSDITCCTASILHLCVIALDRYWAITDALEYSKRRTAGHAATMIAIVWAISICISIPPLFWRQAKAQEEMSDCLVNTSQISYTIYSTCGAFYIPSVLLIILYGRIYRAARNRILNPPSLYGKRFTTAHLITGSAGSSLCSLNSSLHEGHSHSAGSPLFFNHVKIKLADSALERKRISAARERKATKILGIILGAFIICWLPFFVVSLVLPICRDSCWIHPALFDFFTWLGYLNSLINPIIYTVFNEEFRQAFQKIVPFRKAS

[8] = biological target: 3',5'-cyclic-AMP phosphodiesterase 4D (Homo sapiens) (UniProt Q08499); assay: PDE4D2 Eurofins SafetyScreen44 (BI); details: Compound concentration 10.0 uM
[9] = biological target: 5-hydroxytryptamine receptor 1A (Homo sapiens) (UniProt P08908); details: Compound concentration 10.0 uM
[10] = biological target: Alpha-1D adrenergic receptor (Homo sapiens) (UniProt P25100); details: Compound concentration 10.0 uM
[11] = biological target: Beta-2 adrenergic receptor (Homo sapiens) (UniProt P07550); assay: BETA2/HUM Eurofins SafetyScreen44 (BI); details: filed as antagonist, Compound concentration 10.0 uM
[12] = biological target: Matrilysin (Homo sapiens) (UniProt P09237); assay: MMP-7 (H) Eurofins SafetyScreen44 (BI); details: Compound concentration 10.0 uM
[13] = biological target: 5-hydroxytryptamine receptor 2B (Homo sapiens) (UniProt P41595); assay: 5HT2B/H AG Eurofins SafetyScreen44 (BI); details: filed as agonist, Compound concentration 10.0 uM
[14] = biological target: Mu-type opioid receptor (Homo sapiens) (UniProt P35372); details: Compound concentration 10.0 uM
[15] = organism: Rattus norvegicus; details: Compound concentration 10.0 uM
[16] = biological target: Macrophage metalloelastase (Homo sapiens) (UniProt P39900); assay: MMP-12 Eurofins SafetyScreen44 (BI); details: Compound concentration 10.0 uM
Sequence of Macrophage metalloelastase (Homo sapiens) (P39900 106-470 limits assumed): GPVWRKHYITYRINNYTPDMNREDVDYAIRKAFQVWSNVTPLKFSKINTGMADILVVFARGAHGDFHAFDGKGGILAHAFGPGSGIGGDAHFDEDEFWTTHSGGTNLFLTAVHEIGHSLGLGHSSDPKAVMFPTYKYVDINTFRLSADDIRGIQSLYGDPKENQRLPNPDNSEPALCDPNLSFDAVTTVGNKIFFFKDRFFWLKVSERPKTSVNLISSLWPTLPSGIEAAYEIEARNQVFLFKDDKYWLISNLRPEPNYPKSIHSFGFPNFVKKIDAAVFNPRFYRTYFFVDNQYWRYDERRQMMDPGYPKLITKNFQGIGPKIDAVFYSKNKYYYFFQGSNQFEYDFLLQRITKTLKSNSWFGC

[17] = biological target: Prostaglandin G/H synthase 2 (Homo sapiens) (UniProt P35354); assay: COX-2 Eurofins SafetyScreen44 (BI); details: Compound concentration 10.0 uM
[18] = biological target: Sodium-dependent noradrenaline transporter (Homo sapiens) (UniProt P23975); details: Compound concentration 10.0 uM
[19] = biological target: Alpha-2A adrenergic receptor (Homo sapiens) (UniProt P08913); assay: ALPHA2A/HU Eurofins SafetyScreen44 (BI); details: Compound concentration 10.0 uM
[20] = biological target: Sodium-dependent serotonin transporter (Homo sapiens) (UniProt P31645); assay: SLC6A4/H Eurofins SafetyScreen44 (BI); details: filed as antagonist, Compound concentration 10.0 uM
Sequence of Sodium-dependent serotonin transporter (Homo sapiens) (P31645 whole entry, looked up): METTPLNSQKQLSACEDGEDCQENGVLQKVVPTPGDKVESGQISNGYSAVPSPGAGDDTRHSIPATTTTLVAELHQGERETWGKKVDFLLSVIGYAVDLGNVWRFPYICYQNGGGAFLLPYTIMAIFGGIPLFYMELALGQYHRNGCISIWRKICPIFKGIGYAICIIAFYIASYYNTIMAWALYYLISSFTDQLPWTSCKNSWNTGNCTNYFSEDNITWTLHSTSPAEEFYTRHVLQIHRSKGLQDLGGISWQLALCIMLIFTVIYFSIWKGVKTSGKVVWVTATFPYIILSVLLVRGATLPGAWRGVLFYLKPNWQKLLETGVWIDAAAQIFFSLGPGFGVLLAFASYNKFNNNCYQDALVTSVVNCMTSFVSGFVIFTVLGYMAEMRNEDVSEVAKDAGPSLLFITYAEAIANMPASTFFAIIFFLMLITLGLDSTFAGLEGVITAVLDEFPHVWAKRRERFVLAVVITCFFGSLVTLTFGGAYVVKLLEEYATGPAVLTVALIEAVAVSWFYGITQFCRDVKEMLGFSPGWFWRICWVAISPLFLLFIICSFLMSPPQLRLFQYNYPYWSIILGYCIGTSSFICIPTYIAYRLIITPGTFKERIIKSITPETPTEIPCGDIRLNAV

[21] = biological target: Cathepsin B (Homo sapiens) (UniProt P07858); assay: CATHEPSB(H) Eurofins SafetyScreen44 (BI); details: Compound concentration 10.0 uM
[22] = biological target: Cannabinoid receptor 2 (Homo sapiens) (UniProt P34972); assay: CB2/PERIPH/H Eurofins SafetyScreen44 (BI); details: Compound concentration 10.0 uM
[23] = biological target: Beta-1 adrenergic receptor (Homo sapiens) (UniProt P08588); assay: BETA1/HUM Eurofins SafetyScreen44 (BI); details: Compound concentration 10.0 uM
Sequence of Beta-1 adrenergic receptor (Homo sapiens) (P08588 whole entry, looked up): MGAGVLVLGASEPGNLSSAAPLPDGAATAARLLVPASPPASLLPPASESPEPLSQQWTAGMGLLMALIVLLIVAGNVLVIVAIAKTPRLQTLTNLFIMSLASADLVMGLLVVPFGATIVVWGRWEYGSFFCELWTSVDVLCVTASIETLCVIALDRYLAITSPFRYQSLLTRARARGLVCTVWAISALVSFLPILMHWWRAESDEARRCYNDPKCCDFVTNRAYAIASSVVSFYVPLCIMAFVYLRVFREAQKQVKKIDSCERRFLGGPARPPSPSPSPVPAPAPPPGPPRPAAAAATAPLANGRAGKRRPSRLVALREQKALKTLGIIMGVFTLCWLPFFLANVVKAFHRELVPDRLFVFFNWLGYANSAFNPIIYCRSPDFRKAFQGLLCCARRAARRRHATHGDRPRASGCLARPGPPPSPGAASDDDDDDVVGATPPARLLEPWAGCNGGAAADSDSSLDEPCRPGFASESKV

[24] = biological target: 5-hydroxytryptamine receptor 3A (Homo sapiens) (UniProt P46098); details: Compound concentration 10.0 uM
[25] = biological target: hERG (KCNH2) (Homo sapiens, UniProt Q12809); assay: HERG_DOFETILIDE Eurofins SafetyScreen44 (BI); set-up: mode of action inhibitor; details: probe [3H] Dofetilide, compound concentration 10 uM, read-out: % Ctrl
[26] = biological target: Muscarinic acetylcholine receptor M3 (Homo sapiens) (UniProt P20309); details: Compound concentration 10.0 uM
Sequence of Muscarinic acetylcholine receptor M3 (Homo sapiens) (P20309 whole entry, looked up): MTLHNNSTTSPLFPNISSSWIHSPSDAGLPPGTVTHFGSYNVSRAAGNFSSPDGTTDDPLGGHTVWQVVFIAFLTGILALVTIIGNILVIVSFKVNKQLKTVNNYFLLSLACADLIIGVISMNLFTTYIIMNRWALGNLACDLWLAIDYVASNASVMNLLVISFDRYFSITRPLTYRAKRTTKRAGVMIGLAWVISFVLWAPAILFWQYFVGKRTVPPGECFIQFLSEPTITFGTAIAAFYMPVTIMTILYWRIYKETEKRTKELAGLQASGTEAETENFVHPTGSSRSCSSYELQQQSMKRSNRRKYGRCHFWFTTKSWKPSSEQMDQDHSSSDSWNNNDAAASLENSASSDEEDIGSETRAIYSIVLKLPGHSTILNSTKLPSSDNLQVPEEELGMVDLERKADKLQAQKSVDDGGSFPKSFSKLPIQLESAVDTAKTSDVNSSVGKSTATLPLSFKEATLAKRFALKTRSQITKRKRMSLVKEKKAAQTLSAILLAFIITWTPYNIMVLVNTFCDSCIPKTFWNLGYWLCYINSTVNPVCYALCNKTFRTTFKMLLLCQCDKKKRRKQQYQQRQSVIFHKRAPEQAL

[27] = biological target: Cathepsin E (Homo sapiens) (UniProt P14091); assay: CATHEPSINE Eurofins SafetyScreen44 (BI); details: Mus musculus; Compound concentration 10.0 uM
[28] = biological target: Delta-type opioid receptor (Homo sapiens) (UniProt P41143); assay: DELTA2/H Eurofins SafetyScreen44 (BI); details: Compound concentration 10.0 uM
Sequence of Delta-type opioid receptor (Homo sapiens) (P41143 whole entry): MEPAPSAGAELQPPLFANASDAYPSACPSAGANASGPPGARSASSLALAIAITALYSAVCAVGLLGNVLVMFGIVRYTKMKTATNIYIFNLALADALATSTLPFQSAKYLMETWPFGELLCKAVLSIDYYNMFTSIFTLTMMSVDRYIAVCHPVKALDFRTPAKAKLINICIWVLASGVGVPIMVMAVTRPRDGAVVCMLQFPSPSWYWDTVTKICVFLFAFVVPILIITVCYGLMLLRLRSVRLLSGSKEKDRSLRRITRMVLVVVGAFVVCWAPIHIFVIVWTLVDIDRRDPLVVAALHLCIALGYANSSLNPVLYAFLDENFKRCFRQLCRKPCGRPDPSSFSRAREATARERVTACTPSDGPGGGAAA

[29] = biological target: Beta-secretase 1 (Homo sapiens) (UniProt P56817); assay: BACE-1 Eurofins SafetyScreen44 (BI); details: Compound concentration 10.0 uM
[30] = biological target: Caspase-8 (Homo sapiens) (UniProt Q14790); assay: CASPASE8_CE Eurofins SafetyScreen44 (BI); details: Compound concentration 10.0 uM
[31] = biological target: Sodium-dependent serotonin transporter (Homo sapiens) (UniProt P31645); details: Compound concentration 10.0 uM
[32] = biological target: Muscarinic acetylcholine receptor M1 (Homo sapiens) (UniProt P11229); assay: M1/H Eurofins SafetyScreen44 (BI); details: Compound concentration 10.0 uM
[33] = biological target: Beta-1 adrenergic receptor (Homo sapiens) (UniProt P08588); details: Compound concentration 10.0 uM
[34] = biological target: Histamine H3 receptor (Homo sapiens) (UniProt Q9Y5N1); details: Compound concentration 10.0 uM
[35] = biological target: 5-hydroxytryptamine receptor 2A (Homo sapiens) (UniProt P28223); assay: 5HT2AH_AGON Eurofins SafetyScreen44 (BI); details: filed as agonist, Compound concentration 10.0 uM
Sequence of 5-hydroxytryptamine receptor 2A (Homo sapiens) (P28223 whole entry): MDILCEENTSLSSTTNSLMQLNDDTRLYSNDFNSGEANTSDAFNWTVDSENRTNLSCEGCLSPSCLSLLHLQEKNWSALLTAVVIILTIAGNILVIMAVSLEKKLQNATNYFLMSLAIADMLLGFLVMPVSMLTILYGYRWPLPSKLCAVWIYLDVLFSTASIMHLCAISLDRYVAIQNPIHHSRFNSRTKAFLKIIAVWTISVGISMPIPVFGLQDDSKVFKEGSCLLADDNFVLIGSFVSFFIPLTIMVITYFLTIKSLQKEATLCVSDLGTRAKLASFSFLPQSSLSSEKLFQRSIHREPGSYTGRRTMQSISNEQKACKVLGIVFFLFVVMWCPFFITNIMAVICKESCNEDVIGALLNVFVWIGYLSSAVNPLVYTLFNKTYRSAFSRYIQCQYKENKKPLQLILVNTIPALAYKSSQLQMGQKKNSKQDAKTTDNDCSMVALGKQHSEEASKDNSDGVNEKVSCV

[36] = biological target: Neutrophil collagenase (Homo sapiens) (UniProt P22894); assay: MMP-8(H) Eurofins SafetyScreen44 (BI); details: Compound concentration 10.0 uM
[37] = biological target: D(4) dopamine receptor (Homo sapiens) (UniProt P21917); details: Compound concentration 10.0 uM
[38] = biological target: Cholecystokinin receptor type A (Homo sapiens) (UniProt P32238); assay: CCKA/H Eurofins SafetyScreen44 (BI); details: Compound concentration 10.0 uM
[39] = biological target: 5-hydroxytryptamine receptor 1B (Homo sapiens) (UniProt P28222); details: Compound concentration 10.0 uM
[40] = biological target: Procathepsin L (Homo sapiens) (UniProt P07711); assay: CATHEPSIN-L Eurofins SafetyScreen44 (BI); details: Compound concentration 10.0 uM
Sequence of Procathepsin L (Homo sapiens) (P07711 114-333 limits assumed): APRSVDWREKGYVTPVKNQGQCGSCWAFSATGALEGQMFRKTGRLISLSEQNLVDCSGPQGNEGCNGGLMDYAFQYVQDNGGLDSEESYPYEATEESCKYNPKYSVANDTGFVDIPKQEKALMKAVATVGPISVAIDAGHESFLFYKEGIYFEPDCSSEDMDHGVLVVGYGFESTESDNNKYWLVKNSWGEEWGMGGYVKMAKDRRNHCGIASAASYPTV

[41] = biological target: Caspase-6 (Homo sapiens) (UniProt P55212); assay: CASPASE-6_CE Eurofins SafetyScreen44 (BI); details: Compound concentration 10.0 uM
[42] = biological target: Stromelysin-1 (Homo sapiens) (UniProt P08254); assay: MMP-3 (H) Eurofins SafetyScreen44 (BI); details: Compound concentration 10.0 uM
[43] = biological target: Delta-type opioid receptor (Homo sapiens) (UniProt P41143); details: Compound concentration 10.0 uM
[44] = biological target: D(2) dopamine receptor (Homo sapiens) (UniProt P14416); details: Compound concentration 10.0 uM
[45] = biological target: Caspase-2 (Homo sapiens) (UniProt P42575); assay: CASPASE-2(H) Eurofins SafetyScreen44 (BI); details: Compound concentration 10.0 uM
[46] = biological target: Muscarinic acetylcholine receptor M2 (Homo sapiens) (UniProt P08172); details: Compound concentration 10.0 uM
Sequence of Muscarinic acetylcholine receptor M2 (Homo sapiens) (P08172 whole entry): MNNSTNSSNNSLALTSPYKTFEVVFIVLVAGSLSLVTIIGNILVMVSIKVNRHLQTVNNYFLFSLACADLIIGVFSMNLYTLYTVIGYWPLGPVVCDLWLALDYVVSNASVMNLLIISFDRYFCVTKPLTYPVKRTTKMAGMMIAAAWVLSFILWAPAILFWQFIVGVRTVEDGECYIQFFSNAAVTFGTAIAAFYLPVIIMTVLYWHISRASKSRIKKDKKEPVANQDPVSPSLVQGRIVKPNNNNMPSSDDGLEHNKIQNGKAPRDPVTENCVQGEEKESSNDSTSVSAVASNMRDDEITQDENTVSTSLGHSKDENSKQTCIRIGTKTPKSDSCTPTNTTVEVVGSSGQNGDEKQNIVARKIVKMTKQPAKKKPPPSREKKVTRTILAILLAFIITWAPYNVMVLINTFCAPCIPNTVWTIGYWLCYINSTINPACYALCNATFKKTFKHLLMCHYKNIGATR

[47] = biological target: 5-hydroxytryptamine receptor 2A (Homo sapiens) (UniProt P28223); details: Compound concentration 10.0 uM

Sequence of Alpha-2A adrenergic receptor (Homo sapiens) (P08913 whole entry): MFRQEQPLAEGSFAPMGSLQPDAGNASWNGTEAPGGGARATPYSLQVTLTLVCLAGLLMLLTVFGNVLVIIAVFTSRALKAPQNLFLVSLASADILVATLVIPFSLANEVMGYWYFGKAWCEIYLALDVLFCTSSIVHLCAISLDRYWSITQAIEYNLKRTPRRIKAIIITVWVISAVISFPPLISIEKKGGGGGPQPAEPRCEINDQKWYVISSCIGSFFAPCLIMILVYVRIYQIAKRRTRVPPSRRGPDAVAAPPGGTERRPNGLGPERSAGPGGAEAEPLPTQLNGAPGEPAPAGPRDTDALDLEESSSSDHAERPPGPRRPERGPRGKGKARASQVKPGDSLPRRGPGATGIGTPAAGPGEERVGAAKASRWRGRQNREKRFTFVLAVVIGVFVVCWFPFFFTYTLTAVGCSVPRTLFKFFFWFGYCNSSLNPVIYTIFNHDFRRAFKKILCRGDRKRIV

In the case of CC[C@H](CC(=O)O)n1c(=O)c2ncccc2n(Cc2cn(C)c3cc(C)cc(C)c23)c1=O [BI-1942], the residual activity [1] was 111%, the inhibition [2] was 19.6% and the residual activity [3] was 134%. The residual activity [4] was 115%, the inhibition [5] was 0.23% and the inhibition [6] was -5.58%. For the same compound, the inhibition [7] was 52.9%, the residual activity [8] was 106% and the inhibition [9] was 8.83%. For the same compound, the inhibition [10] was 12.1%, the residual activity [11] was 93% and the residual activity [12] was 100%. The residual activity [13] was 100%, the inhibition [14] was 2.82% and the inhibition [15] was 12.2%. The residual activity [16] was 104%, the residual activity [17] was 101% and the inhibition [18] was 31.5%. For the same compound, the residual activity [19] was 90%, the residual activity [20] was 86% and the residual activity [21] was 98%. The residual activity [22] was 109%, the residual activity [23] was 105% and the inhibition [24] was 0.31%. The activity at 10 µM [25] was 105% (not active), the inhibition [26] was 23.8% and the residual activity [27] was 106%. It also gave a residual activity [28] of 95%, a residual activity [29] of 106% and a residual activity [30] of 88%. The inhibition [31] was 4.96%, the residual activity [32] was 112% and the inhibition [33] was 10.4%. It also gave an inhibition [34] of 3.32%, a residual activity [35] of 87% and a residual activity [36] of 107%. It also gave an inhibition [37] of -1.4%, a residual activity [38] of 98% and an inhibition [39] of 5.01%. For the same compound, the residual activity [40] was 99%, the residual activity [41] was 99% and the residual activity [42] was 90%. For the same compound, the inhibition [43] was 9.83%, the inhibition [44] was 0.91% and the residual activity [45] was 156%. The inhibition [46] was 12% and the inhibition [47] was 0.22%.
